PMC10910856 (RSC Advances, 2024)

system: α-glucosidase; assay: Alpha-glucosidase inhibitory assay; assay type: biochemical, Bovine; settings: ratio of IC50 values

Row | times more active towards α-glucosidase enzyme than α-amylase enzyme | Compound
1 | 21 times | CC1=NN(c2ccccc2)C(=O)C1=NNc1ccc(S(N)(=O)=O)cc1 [Compound 3a, 4-(2-(3-Methyl-5-oxo-1-phenyl-1,5-dihydro-4H-pyrazol-4-ylidene) hydrazinyl)benzenesulfonamide]

same assay, conditions: read-out: α-Glucosidase IC50 (μM ± SD); mean of three replicates

Row | Compound | IC50
2 | CC1=NN(c2ccccc2)C(=O)C1=NNc1ccc(S(N)(=O)=O)cc1 [Compound 3a, 4-(2-(3-Methyl-5-oxo-1-phenyl-1,5-dihydro-4H-pyrazol-4-ylidene) hydrazinyl)benzenesulfonamide] | 19.4 ± 2.7 µM
3 | CC1=NN(c2ccc(Cl)cc2)C(=O)C1=NNc1ccc(S(N)(=O)=O)cc1 [Compound 3b, 4-(2-(1-(4-Chlorophenyl)-3-methyl-5-oxo-1,5-dihydro-4H-pyrazol-4-ylidene)hydrazinyl)benzenesulfonamide] | 25.1 ± 0.7 µM
4 | CC1=NN(c2ccc(F)cc2)C(=O)C1=NNc1ccc(S(N)(=O)=O)cc1 [Compound 3e, 4-(2-(1-(4-Fluorophenyl)-3-methyl-5-oxo-1,5-dihydro-4H-pyrazol-4-ylidene)hydrazinyl)benzenesulfonamide] | 44.8 ± 3.4 µM
5 | CC1=NN(c2ccc(C)cc2)C(=O)C1=NNc1ccc(S(N)(=O)=O)cc1 [Compound 3g, 4-(2-(3-Methyl-5-oxo-1-(p-tolyl)-1,5-dihydro-4H-pyrazol-4-ylidene)-hydrazinyl)benzenesulfonamide] | 99.1 ± 6.8 µM
6 | CC1=NN(c2cc(Cl)ccc2Cl)C(=O)C1=NNc1ccc(S(N)(=O)=O)cc1 [Compound 3i, 4-(2-(1-(2,5-Dichlorophenyl)-3-methyl-5-oxo-1,5-dihydro-4H-pyrazol-4-ylidene)hydrazinyl)benzenesulfonamide] | 50.2 ± 4.8 µM
7 | CC1=NN(c2ccccn2)C(=O)C1=NNc1ccc(S(N)(=O)=O)cc1 [Compound 3j, 4-(2-(3-Methyl-5-oxo-1-(pyridin-2-yl)-1,5-dihydro-4H-pyrazol-4-ylidene)hydrazinyl)benzenesulfonamide] | 82.7 ± 7.4 µM
8 | CC1=NNC(=O)C1=NNc1ccc(S(N)(=O)=O)cc1 [Compound 4, 4-(2-(3-Methyl-5-oxo-1,5-dihydro-4H-pyrazol-4-ylidene)hydrazinyl)-benzenesulfonamide] | 76 ± 6.1 µM
9 | CC1=NCCNC(=O)C1=NNc1ccc(S(N)(=O)=O)cc1 [Compound 8, 4-(2-(5-Methyl-7-oxo-1,2,3,7-tetrahydro-6H-1,4-diazepin-6-ylidene)hydrazinyl)benzenesulfonamide] | 110 ± 6.7 µM

Second part, the molecule after the results:

Row | IC50 | Compound
10 | 55.4 ± 4.8 µM | CC1=NN(c2cccc(C)c2)C(=O)C1=NNc1ccc(S(N)(=O)=O)cc1 [Compound 3f, 4-(2-(3-Methyl-5-oxo-1-(m-tolyl)-1,5-dihydro-4H-pyrazol-4-ylidene)-hydrazinyl)benzenesulfonamide]
11 | 25.6 ± 2.1 µM | CC1=NN(c2cccc([N+](=O)[O-])c2)C(=O)C1=NNc1ccc(S(N)(=O)=O)cc1 [Compound 3h, 4-(2-(3-Methyl-1-(3-nitrophenyl)-5-oxo-1,5-dihydro-4H-pyrazol-4-ylidene)hydrazinyl)benzenesulfonamide]
12 | 78.7 ± 5.9 µM | CC1=NOC(=O)C1=NNc1ccc(S(N)(=O)=O)cc1 [Compound 5, 4-(2-(3-Methyl-5-oxoisoxazol-4(5H)-ylidene)hydrazinyl)benzene-sulfonamide]
13 | 85.4 ± 2.3 µM | CC1=NNC(=S)NC(=O)C1/N=N/c1ccc(S(N)(=O)=O)cc1 (stereo not shown) [Compound 7, (E)-4-((7-methyl-5-oxo-3-thioxo-3,4,5,6-tetrahydro-2H-1,2,4-triazepin-6-yl)diazenyl)benzenesulfonamide]
